{"source": "paper PMC4667271", "about": "“Discovery of a Novel Inhibitor of the Protein Tyrosine Phosphatase Shp2” (Scientific Reports, 2015)", "key": {"[1]": {"tested_on": "ERK1/2 activation in HEK293T cells expressing H-RasV12", "assay": "RasV12-induced ERK1/2 activation in transfected HEK293T", "assay_type": "cell-based, human", "conditions": "Fumos 20 μM or U0126 10 μM, 24 h", "method": "DMSO treatment as control. […] (c) Fumos inhibits EGF-induced Ras activation.\nHEK293T, MDA-MB-231and HeLa cell lines were obtained from CRC/PUMC. Cell lines were maintained in Dulbecco’s modified Eagle’s medium supplemented with 10% fetal bovine serum. Transfections were performed in 6-well plates according to manufacturer (Invitrogen Lipofectamine LTX).Briefly, for transient transfection of HEK293T cells, subconfluent cells in 6-well plates were incubated with 2 ml of Dulbecco’s modified Eagle’s medium containing 2.5 μg of total DNA and 7.5 μl of each Lipofectamine and Plus reagent (Invitrogen) and then serum-starved in DMEM/0.1% bovine serum albumin for 18 h. After Fumos treatment for 24 h, cells were stimulated for 5 min with 20 ng/ml EGF.\nAfter centrifugation, the supernatant was collected."}, "[2]": {"biological_target": "T1, Shp2 PTP domain (Homo sapiens, UniProt Q06124)", "T1 sequence (Q06124 247-517 limits assumed)": "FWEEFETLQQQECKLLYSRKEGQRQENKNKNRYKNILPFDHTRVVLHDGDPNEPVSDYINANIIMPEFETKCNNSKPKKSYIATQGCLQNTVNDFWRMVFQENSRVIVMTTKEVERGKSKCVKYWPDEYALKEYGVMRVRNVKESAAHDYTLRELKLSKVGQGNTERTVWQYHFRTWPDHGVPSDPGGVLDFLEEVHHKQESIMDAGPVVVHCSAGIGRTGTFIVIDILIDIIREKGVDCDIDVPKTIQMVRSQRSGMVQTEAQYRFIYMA", "assay": "in vitro PTP assay (pNPP), Shp2 PTP domain", "assay_type": "biochemical", "conditions": "Shp2 PTP domain; pNPP; mean ± S.E.M., triplicate; read-out: IC50", "method": "(§1) Plasmids for expression of His-tag fusion proteins of human PTP were constructed in PET-28a by PCR subcloning techniques. The constructions contain only the PTP domain except Full-length Shp2. Full-length Shp2 containing Tyr279-to-Ala mutant was generated by PCR-based mutagenesis. All constructs were verified by DNA sequencing. PTP-His fusion proteins were expressed in Escherichia coli BL21 and lysed in the buffer (50 mM NaH2PO4, 300 mM NaCl, 250 mM imidazole, 1 mM dithiothreitol plus 5% glycerol), purified with Ni-NTA Magnetic Agarose Beads (Qiagen). The His-tag recombinant purification protocol was carried out according to the purification under native conditions of the QIAexpress System.\n(§2) The assay was set in wells of 96-well plate with a final volume of 100 μl of reaction mixture containing 10 mM of NaAc-HAc, 1 mM of ethylene diamine tetraacetic acid, 1 mM of DL-dithiothreitol and 2% of dimethyl sulfoxide, pH 5.5. Activity of the enzyme was assayed by incubating recombinant PTP protein or mutant PTP with various concentrations of Fumos in the mixture at 37 °C for 30 min. Absorbance at 405 nm was detected immediately after addition of varied concentrations of substrate, p-nitrophenyl phosphate (pNPP) to each corresponding well."}, "[3]": {"biological_target": "T2, full-length Shp2 (Shp2 FL) (Homo sapiens, UniProt Q06124)", "T2 sequence (Q06124 1-593)": "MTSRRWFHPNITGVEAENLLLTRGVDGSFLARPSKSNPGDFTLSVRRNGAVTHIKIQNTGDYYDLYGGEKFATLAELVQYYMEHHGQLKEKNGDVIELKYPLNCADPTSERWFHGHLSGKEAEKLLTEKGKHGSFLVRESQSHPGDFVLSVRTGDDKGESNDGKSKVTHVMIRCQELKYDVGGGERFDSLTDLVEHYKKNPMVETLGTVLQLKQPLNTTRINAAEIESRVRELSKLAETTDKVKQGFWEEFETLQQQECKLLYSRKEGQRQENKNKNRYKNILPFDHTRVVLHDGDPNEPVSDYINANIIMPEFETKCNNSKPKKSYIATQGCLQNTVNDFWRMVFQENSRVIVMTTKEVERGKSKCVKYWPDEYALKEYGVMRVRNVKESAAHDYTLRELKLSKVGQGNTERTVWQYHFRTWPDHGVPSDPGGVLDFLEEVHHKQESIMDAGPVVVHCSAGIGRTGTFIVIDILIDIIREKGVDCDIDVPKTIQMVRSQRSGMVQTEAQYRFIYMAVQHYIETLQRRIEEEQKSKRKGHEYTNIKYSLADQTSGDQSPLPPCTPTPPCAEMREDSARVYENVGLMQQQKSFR", "assay": "in vitro PTP assay (pNPP), full-length Shp2", "assay_type": "biochemical", "conditions": "full-length Shp2 (Shp2 FL)", "method": "as §1, §2"}}}
{"smiles": "N#CC(=C(/N)Sc1ccccc1N)/C(C#N)=C(/N)Sc1ccccc1N", "note": "[U0126, reference compound]", "values": [{"measurement": "RasV12-induced ERK1/2 activation", "setting": "[1]", "value": "blocked ERK1/2 phosphorylation"}]}
{"smiles": "[Na+].[Na+].[Na+].[O]=[V]([O-])([O-])[O-]", "note": "[sodium orthovanadate, reference compound]", "values": [{"measurement": "IC50", "setting": "[2]", "value": 620, "unit": "µM"}, {"measurement": "IC50", "setting": "[3]", "value": 630, "unit": "µM"}]}
